Laboratory results published in publication PMC12488667, “Orodispersible films containing chestnut shell phenolics for buccal delivery: a preclinical approach for oral mucositis prevention” (Frontiers in Medical Technology, 2025).
Marks after values point to notes of the source that are not given here.

Legend:
TR146 cells = experiment: In vitro permeation, buccal model; type: in vitro ADME, human
Protocol: The in vitro permeability of the bioactive compounds present in OFs (n = 9) was determined using a co-culture model composed of TR146 ([31]). The extract and the CS-loaded OFs were added to the apical side of the model as a stock solution. […] The Transepithelial Electrical Resistance (TEER) of the model was evaluated before, during, and at the end of the permeability assay using an EVOM Epithelial Volthometer equipped with a chopstick electrode (World Precision Instruments, Sarasota, FL, USA).
(§1) The identification and quantification of the phenolic compounds present in the extract and the OFs, as well as the compounds that permeated from the OFs through in vitro and ex vivo assays, were conducted using an LC-ESI-LTQ-Orbitrap-HRMS equipment with an Accela chromatograph (Thermo Scientific, Hemel Hempstead, UK), a photodiode array detector, a quaternary pump, and a temperature-controlled autosampler coupled to a high-resolution LTQ Orbitrap Velos mass spectrometer (Thermo Scientific, Hemel Hempstead, UK) with an ESI source in negative mode ([33], [34]). The system was controlled using the Xcalibur v3.0 software (ThermoFisher Scientific, Hemel Hempstead, UK). Elution was performed on an Acquity™ UPLC® BEH C18 Column (2.1 × 100 mm, i.d., 1.7 µm particle size, Waters Corporation, Wexford, Ireland) maintained at 30°C.
(§2) Gradient elution was performed with water (A) and acetonitrile (B), both with 0.1% formic acid, with a flow rate and injection volume of 450 µl/min and 5 µl, respectively. The solvent gradient (v/v) of B [t (min), %B] was set as follows: (0, 0), (2, 0), (4, 30), (8, 100), (10, 100), (11, 0), and (14, 0). The samples were analyzed in the full scan mode at a resolving power of 30,000 and m/z 600. Data-dependent MS/MS events were acquired at a resolution of 15,000. Most intense ions were detected via the FTMS mode-triggered data-dependent acquisition mode. Ions that were not sufficiently intense for a data-dependent scan were explored in MSn mode. Precursors were fragmented by collision-induced dissociation using a C-trap with a normalized collision energy (35 V) and an activation time of 10 ms. […] Compounds whose theoretical [M–H]^− values exceeded the MS¹ acquisition range (m/z 100–600) were annotated based on characteristic MSⁿ fragment ions detected within the scan window.

[1] = Ex vivo permeation, Franz cells; type: in vitro ADME, porcine; settings: for Permeation (%): from CS extract
Protocol: Porcine buccal mucosa was used to evaluate the buccal permeation of the phenolic compounds in the extract and the CS-loaded OFs (n = 9). The porcine buccal mucosa was purchased in a local butcher shop, not requiring ethical approval. A Franz cell assembly (9 mm clear jacketed Franz cell with a flat ground joint, 5 ml receptor volume, and permeation area of 0.785 cm^2; PermeGear, Inc., USA) was used. This experiment followed the methodology described by Rodrigues et al. ([32]). In the Franz apparatus, the porcine buccal mucosa was positioned with the cheek side facing the donor chamber, which contained 500 µl (1,000 μg/ml) of the CS extract or the CS-loaded OFs (two square films (2 × 2 cm) with […] of thickness were dissolved in 4 ml of artificial saliva; donor concentration was normalized to ensure equivalence between the extract solution and the film formulation). The receptor chamber was filled with 5 ml PBS, maintained at 37°C, and stirred continuously at 150 rpm. The volume was maintained through the experiments.
as §1, §2
Quantitative analysis was performed by using a validated chromatographic method ([38]).

Compound: O=C(O)c1ccc(O)c(O)c1 [Protocatechuic acid]
- Quantification of permeated compounds (TR146 cells; CS extract): 0.53 ± 0.03^a mg/ml
- Quantification of permeated compounds (TR146 cells; CS-loaded OFs): 0.41 ± 0.02^a mg/g film
- Permeation (%) (TR146 cells; from CS extract, 15 min): 39.32 ± 0.96^b %
- Permeation (%) (TR146 cells; from CS extract, 30 min): 43.86 ± 1.62^b %
- Permeation (%) (TR146 cells; from CS extract, 45 min): 42.03 ± 0.79^b %
- Permeation (%) (TR146 cells; from CS extract, 60 min): 38.29 ± 0.86^b %
- Permeation (%) (TR146 cells; from CS extract, 90 min): 37.52 ± 0.97^b %
- Permeation (%) (TR146 cells; from CS extract, 120 min): 25.84 ± 1.03^a %
- Permeation (%) (TR146 cells; from CS extract, 180 min): 40.40 ± 0.82^c %
- Permeation (%) (TR146 cells; from CS extract, 240 min): 32.88 ± 0.87^b %
- Permeation (%) (TR146 cells; from CS-loaded OFs, 15 min): 89.42 ± 3.08^b %
- Permeation (%) (TR146 cells; from CS-loaded OFs, 45 min): 85.88 ± 2.01^b %
- Permeation (%) (TR146 cells; from CS-loaded OFs, 60 min): 94.08 ± 3.56^b %
- Permeation (%) (TR146 cells; from CS-loaded OFs, 90 min): 96.88 ± 1.43^b %
- Permeation (%) (TR146 cells; from CS-loaded OFs, 120 min): 106.06 ± 0.78^b %
- Permeation (%) (TR146 cells; from CS-loaded OFs, 180 min): 84.76 ± 2.51^b %
- Permeation (%) (TR146 cells; from CS-loaded OFs, 240 min): 75.80 ± 0.91^a %
- Permeation (%) (TR146 cells; from CS-loaded OFs, 240 min, listed as protocatechuic acid): 75.80%
- Quantification of permeated compounds ([1]; CS extract): 0.97 ± 0.03^b mg/ml
- Quantification of permeated compounds ([1]; CS-loaded OFs): 0.13 ± 0.01^a mg/g film
- Permeation (%) ([1]; 15 min): 19.05 ± 1.63^a %
- Permeation (%) ([1]; 30 min): 19.06 ± 0.61^a %
